Assays:
Hippocampal neurons = type: cell-based; settings: hippocampal neurons in primary culture, 3-nitropropionic acid applied
From the text: Similar results were obtained with other cells. Hippocampal neurons grown in primary culture were stimulated to die by application of the neurotoxic metabolic poison 3-nitropropionic acid.

HL60 cells = test: Etoposide-triggered apoptotic proteolysis in HL60 cells (immunoblot); type: cell-based, human; settings: 17 micromolar etoposide, 2 or 4 hours
Description: HL60 cells (obtained from the American Type Culture Collection, Rockville, Md.) were cultured using published techniques (Collins et al., Nature, 270:347-349 (1977), incorporated herein by reference). Cultures of cells were incubated with either 17 micromolar etoposide (from a 1000× stock solution made in dimethylsulfoxide) to trigger apoptosis or a vehicle. After either 2 or 4 hours, cells were lysed in ice cold 25 millimolar (mM) HEPES (pH 7.5), 5 mM MgCl2, 0.1% Triton X-100 and a cocktail of protease inhibitors (1 mM EGTA, 10 micrograms per ml of aprotinin, 10 micrograms per ml of leupeptin, 7 micrograms per ml of pepstatin A, 1 mM phenylmethylsulfonylfluoride (PMSF). The resulting cell lysates were subjected to SDS-polyacrylamide gel electrophoresis on 4-20% Tris-glycine gradient gels, and the separated proteins transferred to nitrocellulose membranes by Western blotting. The blots were immunostained with Ab127 ( 1/5,000) followed by incubation with alkaline phosphatase conjugated goat anti-rabbit IgG (Bio-Rad, Burlingame, Calif.) and visualized as described previously (Roberts-Lewis et al., J. Neurosci. 14:3934-3944 (1994), incorporated herein by reference).

Row | Structure (SMILES) | apoptotic neurons by Hoechst 33258 nuclear stain (Hippocampal neurons) | level of about 30 kDa immunoreactive polypeptide (HL60 cells)
1 | O=C(O)CC[N+](=O)[O-] [3-nitropropionic acid] | presence of apoptotic neurons | –
2 | COc1cc([C@@H]2c3cc4c(cc3[C@@H](O[C@@H]3O[C@@H]5CO[C@@H](C)O[C@H]5[C@H](O)[C@H]3O)[C@H]3COC(=O)[C@H]23)OCO4)cc(OC)c1O [etoposide] | – | increased with increasing time of cell exposure
